Results taken from the NIST ThermoML archive (doi:10.1016/j.jct.2016.10.034).

Legend:
[1] = for viscosity / mass density: 100 kPa, Liquid; for viscosity: Falling or rolling sphere viscometry; for mass density: Vibrating tube method; for Glass transition temperature: DSC
[2] = xn = mol fraction of the nth substance listed; details: 100 kPa, Liquid, x2 = 0; for viscosity: Falling or rolling sphere viscometry; for mass density: Vibrating tube method

CC(=O)[O-].CC[N+]1(C)CCCC1 [1-ethyl-1-methylpyrrolidinium acetate]
[1]
Details | mass density [kg/m3] | viscosity [mPa·s]
298.15 K | 1064.5 | 240
303.15 K | 1061.8 | 184
308.15 K | 1058.7 | 145
313.15 K | 1055.9 | 117
318.15 K | 1053.1 | 93.4
323.15 K | 1050.3 | 74
328.15 K | 1047.4 | 60
333.15 K | 1044.4 | 49.2
338.15 K | 1041.8 | 39.4
343.15 K | 1038.8 | 32.4
348.15 K | 1035.9 | 26

Details | Glass transition temperature [°C]
[1] | -88

CC[N+]1(C)CCCC1.O=C([O-])CO [1-ethyl-1-methylpyrrolidinium glycolate]
[1]
Details | mass density [kg/m3] | viscosity [mPa·s]
298.15 K | 1134 | 345
303.15 K | 1130.7 | 254
308.15 K | 1127.3 | 192
313.15 K | 1124 | 151
318.15 K | 1120.8 | 116
323.15 K | 1117.6 | 92.2
328.15 K | 1114.4 | 76.9
333.15 K | 1111.2 | 60.6
338.15 K | 1108.1 | 49.6
343.15 K | 1105 | 41.2
348.15 K | 1101.9 | 34.2

Details | Glass transition temperature [°C]
[1] | -80

CC[N+]1(C)CCOCC1.O=C([O-])CO [N-ethyl-N-methylmorpholinium glycolate]
[1]
Details | mass density [kg/m3] | viscosity [mPa·s]
298.15 K | 1232.6 | –
303.15 K | 1229.5 | –
308.15 K | 1226.3 | –
313.15 K | 1223 | –
318.15 K | 1219.8 | 2500
323.15 K | 1216.5 | 1799
328.15 K | 1213.3 | 1155
333.15 K | 1210.1 | 854
338.15 K | 1207.2 | 666
343.15 K | 1204.1 | 488
348.15 K | 1201.1 | 363

Details | Glass transition temperature [°C]
[1] | -59

O [water] + CC(=O)[O-].CC[N+]1(C)CCCC1
[2]
Details | mass density [kg/m3] | viscosity [mPa·s]
298.15 K | – | 0.89
303.15 K | – | 0.797
308.15 K | – | 0.719
313.15 K | – | 0.653
318.15 K | – | 0.596
323.15 K | 987.9 | 0.547
328.15 K | 985.7 | 0.504
333.15 K | 983.2 | 0.466
338.15 K | 980.3 | 0.433
343.15 K | 978.1 | 0.404
348.15 K | 974.8 | 0.378

O [water] + CC[N+]1(C)CCCC1.O=C([O-])CO
[2]
Details | mass density [kg/m3] | viscosity [mPa·s]
298.15 K | – | 0.89
303.15 K | – | 0.797
308.15 K | – | 0.719
313.15 K | – | 0.653
318.15 K | – | 0.596
323.15 K | 987.9 | 0.547
328.15 K | 985.7 | 0.504
333.15 K | 983.2 | 0.466
338.15 K | 980.3 | 0.433
343.15 K | 978.1 | 0.404
348.15 K | 974.8 | 0.378

O [water] + CC[N+]1(C)CCOCC1.O=C([O-])CO
[2]
Details | mass density [kg/m3] | viscosity [mPa·s]
298.15 K | – | 0.89
303.15 K | – | 0.797
308.15 K | – | 0.719
313.15 K | – | 0.653
318.15 K | – | 0.596
323.15 K | 987.9 | 0.547
328.15 K | 985.7 | 0.504
333.15 K | 983.2 | 0.466
338.15 K | 980.3 | 0.433
343.15 K | 978.1 | 0.404
348.15 K | 974.8 | 0.378
